Data as given in patent US4117003A, “Substituted aromatic naphthalene sulfonamides” (American Cyanamid Company, priority 1977, dated 1978).
Counter-ions that a name gives are not always drawn. Like-named read-outs stand apart in the source and are kept apart here.

Key:
[1] = tested on: late components of human complement (C3-C9); experiment: Test, Code 035 (C3-C9 inhibitor); type: biochemical; settings: activity in wells of a serial two-fold dilution assay; higher well number indicates higher activity
Excerpt: (§1) This test measures the ability of activated human C1 to destroy fluid phase human C2 in the presence of C4 and appropriate dilutions of the test compound. An active inhibitor protects C2 from C1 and C4; (ii) Test, Code 035 (C3-C9 inhibitor). This test determines the ability of the late components of human complement (C3-C9) to lyse EAC 142 in the presence of appropriate dilutions of the test compound. An active inhibitor protects EAC 142 from lysis by human C3-C9; (iii) Test, Code 036 (C-Shunt inhibitor). In this test human erythrocytes rendered fragile are lysed in autologous serum via the shunt pathway activated by cobra venom factor in the presence of appropriate dilutions of the test compound. Inhibition of the shunt pathway results in failure of lysis; (iv) Forssman Vasculitis Test - Here, the well known complement dependent lesion, Forssman vasculitis, is produced in guinea pigs by intradermal injection of rabbit anti-Forssman antiserum. […]

[2] = tested on: whole complement in serum; experiment: Complement Level Reduction Test (in vivo, capillary tube assay of serum); settings: Cavia porcellus, ip, guinea pig, 200 mg/kg i.p., read-out: In Vivo Activity (Guinea Pig) % Inhibition Intraperitoneal
[3] = tested on: shunt pathway activated by cobra venom factor; experiment: Test, Code 036 (C-Shunt inhibitor); type: cell-based, human; settings: activity in wells of a serial two-fold dilution assay; higher well number indicates higher activity
Excerpt: as §1

activated human C1 = molecular target: T1, activated human C1 (Homo sapiens, UniProt P09871); experiment: Test, Code 026 (C1 inhibitor); type: biochemical; settings: activity in wells of a serial two-fold dilution assay; higher well number indicates higher activity
T1 sequence (P09871 438-688 limits assumed): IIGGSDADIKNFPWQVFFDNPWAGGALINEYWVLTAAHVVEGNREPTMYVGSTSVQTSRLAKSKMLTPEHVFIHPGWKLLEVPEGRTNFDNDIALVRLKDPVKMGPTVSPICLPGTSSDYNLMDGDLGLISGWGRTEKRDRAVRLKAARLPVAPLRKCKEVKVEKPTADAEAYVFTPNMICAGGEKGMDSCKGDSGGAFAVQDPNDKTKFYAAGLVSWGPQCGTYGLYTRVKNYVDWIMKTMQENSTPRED
T1 sequence (P09871 16-437 limits assumed): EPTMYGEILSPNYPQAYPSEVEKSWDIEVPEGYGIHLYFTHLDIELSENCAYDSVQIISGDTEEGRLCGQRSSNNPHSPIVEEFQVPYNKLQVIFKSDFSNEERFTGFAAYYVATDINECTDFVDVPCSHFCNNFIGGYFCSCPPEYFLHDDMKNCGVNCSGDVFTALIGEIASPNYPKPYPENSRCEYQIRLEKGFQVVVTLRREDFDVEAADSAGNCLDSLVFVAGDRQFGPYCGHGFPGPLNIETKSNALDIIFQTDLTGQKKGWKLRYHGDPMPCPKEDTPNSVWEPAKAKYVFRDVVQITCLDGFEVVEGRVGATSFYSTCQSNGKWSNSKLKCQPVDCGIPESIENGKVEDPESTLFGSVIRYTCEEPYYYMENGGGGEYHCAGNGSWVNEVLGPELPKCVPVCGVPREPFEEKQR
Excerpt: as §1

| SMILES | C-Late 0.35* Wells [1] | inhibition at 200 mg/kg ([2]; 0.5 h, 30 minutes) [%] | inhibition at 200 mg/kg ([2]; 1 h, 60 minutes) [%] | inhibition at 200 mg/kg ([2]; 2 h, 120 minutes) [%] | Shunt Inhibition 0.36* Wells [3] | Cl 0.26* Wells (activated human C1) |
| --- | --- | --- | --- | --- | --- | --- |
| O=S(=O)(O)c1cc(NS(=O)(=O)c2ccc3c(S(=O)(=O)Nc4cc(S(=O)(=O)O)cc(S(=O)(=O)O)c4)cc(S(=O)(=O)Nc4cc(S(=O)(=O)O)cc(S(=O)(=O)O)c4)cc3c2)cc(S(=O)(=O)O)c1 [5,5',5"-[1,3,6-Naphthalenetris(sulfonylimino)]tris-1,3-benzenedisulfonic acid hexasodium salt] | N | -85 | -86 | -86 | – | – |
| O=S(=O)(O)c1ccc(NS(=O)(=O)c2ccc3c(S(=O)(=O)Nc4ccc(S(=O)(=O)O)cc4)cc(S(=O)(=O)Nc4ccc(S(=O)(=O)O)cc4)cc3c2)cc1 [4,4',4"-[1,3,6-Naphthalenetris(sulfonylimino)]trisbenzenesulfonic acid trisodium salt] | N | – | – | – | N | +4 Wells |
